Experimental data: patent US8415469B2, “Compounds and methods for kinase modulation, and indications therefor” (Plexxikon Inc., priority 2005, dated 2013)

Legend:
Assay type in all cases: biochemical
Met = molecular target: T1, Met (Homo sapiens, UniProt P08581); assay: AlphaScreen kinase assay, Met; conditions: read-out: IC50, activity toward kinase Met
T1 construct: P1818.pETN6 BI-PTP MET G1056-G1364-X WT; His6 (N); made in house; host or cells: E. coli (PTP1B co-expressed)
Description: AlphaScreen assay was used to screen additional kinases. The assay is similarly dependent on the phosphorylation of a peptide substrate. In this assay, an antibody that recognizes phosphorylated substrate is bound to an acceptor bead. The peptide substrate is attached to biotin, which binds to a donor head that contains streptavidin. Thus phosphorylated substrate is bound by antibody and streptavidin, bringing the donor and acceptor heads into close proximity when kinase is not inhibited. The donor produces singlet oxygen which results in emission from the acceptor when they are in close proximity. Conversely, when kinase is inhibited, the donor and acceptor beads are not associated and the emission from the acceptor is reduced.
AlphaScreen assays were done using compounds dissolved in DMSO to a concentration of 20 mM. The compounds were diluted accordingly to the desired final concentrations in each sample well, using 1:3 serial dilution for a total of 8 concentration points.

Stk6 = molecular target: T2, Stk6 (Homo sapiens, UniProt O14965); assay: Z'-Lyte FRET kinase assay (Invitrogen), Stk6; conditions: read-out: IC50, activity toward kinase Stk6
T2 construct: purchased Invitrogen (Carlsbad, Calif.), screening service
T2 sequence (O14965 1-403): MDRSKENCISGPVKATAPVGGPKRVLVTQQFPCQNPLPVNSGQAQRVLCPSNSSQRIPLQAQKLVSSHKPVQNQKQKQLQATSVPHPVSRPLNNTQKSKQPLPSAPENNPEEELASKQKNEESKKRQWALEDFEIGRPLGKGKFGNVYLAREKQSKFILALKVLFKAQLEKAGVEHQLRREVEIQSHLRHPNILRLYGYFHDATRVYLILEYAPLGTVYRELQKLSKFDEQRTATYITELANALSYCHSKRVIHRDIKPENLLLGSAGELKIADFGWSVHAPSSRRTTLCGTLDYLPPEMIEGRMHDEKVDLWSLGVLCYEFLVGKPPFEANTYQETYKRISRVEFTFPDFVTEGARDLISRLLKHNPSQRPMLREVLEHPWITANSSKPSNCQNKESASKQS

B-Raf V600E = molecular target: T3, B-Raf V600E (Homo sapiens, UniProt P15056, V600E); assay: AlphaScreen kinase assay, B-Raf V600E; conditions: read-out: IC50, activity toward kinase B-Raf V600E
T3 construct: P4254. pFastBacBD-CDC37 BRAF D437-K722-X, V600E; His6 with pFastBac HT leader (TEV site) (N); made in house; host or cells: Sf9 (baculovirus; chaperone CDC37 co-expressed)

FGFR1 = molecular target: T4, FGFR1 (Homo sapiens, UniProt P11362, C488A/C584S); assay: AlphaScreen kinase assay, FGFR1; conditions: read-out: IC50, activity toward kinase FGFR
T4 construct: P1351.pET N6 BI-PTP FGFR A458-E765-X C488A, C584S; made in house; host or cells: E. coli (PTP1B co-expressed)

Flt1 = molecular target: T5, Flt1 (Homo sapiens, UniProt P17948); assay: AlphaScreen kinase assay, Flt1; conditions: read-out: IC50, activity toward kinase Flt1
T5 construct: P1826.pETN6 BI-PTP FLT1 M799-D1165-X WT; His6 (N); made in house; host or cells: E. coli (PTP1B co-expressed)
T5 sequence (P17948 with tags, fused parts or gaps): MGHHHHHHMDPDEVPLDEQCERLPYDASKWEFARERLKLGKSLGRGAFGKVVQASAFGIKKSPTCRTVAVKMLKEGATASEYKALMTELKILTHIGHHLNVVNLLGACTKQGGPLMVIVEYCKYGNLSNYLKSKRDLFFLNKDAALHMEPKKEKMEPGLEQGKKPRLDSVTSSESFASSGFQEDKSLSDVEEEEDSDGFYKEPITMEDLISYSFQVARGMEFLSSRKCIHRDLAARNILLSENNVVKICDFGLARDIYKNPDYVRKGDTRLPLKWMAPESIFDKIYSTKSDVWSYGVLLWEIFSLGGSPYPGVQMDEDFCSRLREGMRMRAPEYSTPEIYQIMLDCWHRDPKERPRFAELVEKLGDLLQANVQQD

Fms = molecular target: T6, Fms (Homo sapiens, UniProt P07333); assay: AlphaScreen kinase assay, Fms; conditions: read-out: IC50, activity toward kinase Fms
T6 construct: purchased Upstate Biotechnology

Jnk1 = molecular target: T7, Jnk1 (Homo sapiens, UniProt P45983); assay: AlphaScreen kinase assay, Jnk1; conditions: read-out: IC50, activity toward kinase Jnk1
T7 construct: purchased Upstate Biotechnology

Jnk3 = molecular target: T8, Jnk3 (Homo sapiens, UniProt P53779); assay: AlphaScreen kinase assay, Jnk3; conditions: read-out: IC50, activity toward kinase Jnk3
T8 construct: purchased Upstate Biotechnology

Kit = molecular target: T9, Kit (Homo sapiens, UniProt P10721); assay: AlphaScreen kinase assay, Kit; conditions: read-out: IC50, activity toward kinase Kit
T9 construct: P1332.N6 BI PTP KIT M552-K948-X COD; His6 (N); made in house; host or cells: E. coli (PTP1B co-expressed)

B-Raf = molecular target: T10, B-Raf (Homo sapiens, UniProt P15056); assay: AlphaScreen kinase assay, B-Raf; conditions: read-out: IC50, activity toward kinase B-Raf
T10 construct: purchased Upstate Biotechnology

c-Raf-1 = molecular target: T11, c-Raf-1 (Homo sapiens, UniProt P04049); assay: AlphaScreen kinase assay, c-Raf-1; conditions: read-out: IC50, activity toward kinase c-Raf-1
T11 construct: purchased Upstate Biotechnology

Jnk2 = molecular target: T12, Jnk2 (Homo sapiens, UniProt P45984); assay: AlphaScreen kinase assay, Jnk2; conditions: read-out: IC50, activity toward kinase Jnk2
T12 construct: purchased Roche Protein Expression Group (Indianapolis, IN)
Procedure, shortened: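 Emission from acceptor beads reports phosphorylated biotin-peptide bridging antibody-coated acceptor and streptavidin donor beads; loss of signal reflects kinase inhibition. Eight-point, threefold dilution series prepared from 20 mM DMSO stocks.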

Ret = molecular target: T13, Ret (Homo sapiens, UniProt P07949); assay: AlphaScreen kinase assay, Ret; conditions: read-out: IC50, activity toward kinase Ret
T13 construct: P1378.pET-SF BI-PTP RET H661-R1012 HIS; made in house
T13 sequence (P07949 with tags, fused parts or gaps): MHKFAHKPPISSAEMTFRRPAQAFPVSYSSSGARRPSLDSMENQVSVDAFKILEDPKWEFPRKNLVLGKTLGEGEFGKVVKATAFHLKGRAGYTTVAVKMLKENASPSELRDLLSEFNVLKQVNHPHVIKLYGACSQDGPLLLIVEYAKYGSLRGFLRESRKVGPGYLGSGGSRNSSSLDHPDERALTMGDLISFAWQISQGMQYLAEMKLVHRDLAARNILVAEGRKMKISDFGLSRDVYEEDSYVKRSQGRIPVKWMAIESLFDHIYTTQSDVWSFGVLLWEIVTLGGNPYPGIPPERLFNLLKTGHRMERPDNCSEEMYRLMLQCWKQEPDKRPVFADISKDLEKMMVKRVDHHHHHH

Src = molecular target: T14, Src (Homo sapiens, UniProt P12931); assay: AlphaScreen kinase assay, Src; conditions: read-out: IC50, activity toward kinase Src
T14 construct: P1144. pET-N6 BI-PTP SRC V86-L536-X; made in house

Fak = molecular target: T15, Fak (Homo sapiens, UniProt Q05397); assay: AlphaScreen kinase assay, Fak; conditions: read-out: IC50, activity toward kinase Fak
T15 construct: P1358.pFastBacHtb FAK S411-Q686-X; His6 with pFastBacHTb leader (TEV site) (N); made in house; host or cells: Sf9 (baculovirus)

Kdr = molecular target: T16, Kdr (Homo sapiens, UniProt P35968); assay: Z'-Lyte FRET kinase assay (Invitrogen), Kdr; conditions: read-out: IC50, activity toward kinase Kdr
T16 construct: purchased Invitrogen (assay run by Invitrogen)

Measured: IC50

T4 sequence (P11362 458-765 C488A/C584S): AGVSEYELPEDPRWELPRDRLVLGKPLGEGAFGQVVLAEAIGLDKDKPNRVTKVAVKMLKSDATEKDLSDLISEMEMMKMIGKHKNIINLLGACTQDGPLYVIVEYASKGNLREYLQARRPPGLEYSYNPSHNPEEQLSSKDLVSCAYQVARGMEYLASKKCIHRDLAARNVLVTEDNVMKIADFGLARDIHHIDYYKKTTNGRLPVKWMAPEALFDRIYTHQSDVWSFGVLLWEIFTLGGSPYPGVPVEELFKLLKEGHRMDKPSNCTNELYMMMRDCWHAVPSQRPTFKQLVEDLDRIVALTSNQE
T3 sequence (P15056 with tags, fused parts or gaps V600E): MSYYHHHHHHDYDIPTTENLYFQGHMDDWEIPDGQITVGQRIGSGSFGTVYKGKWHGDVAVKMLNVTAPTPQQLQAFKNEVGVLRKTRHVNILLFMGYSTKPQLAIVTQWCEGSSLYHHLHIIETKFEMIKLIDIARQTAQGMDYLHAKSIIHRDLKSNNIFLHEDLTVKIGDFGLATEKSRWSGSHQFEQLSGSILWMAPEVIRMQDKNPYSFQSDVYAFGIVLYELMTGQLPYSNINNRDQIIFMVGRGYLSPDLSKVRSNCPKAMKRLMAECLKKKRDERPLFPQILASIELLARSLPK
T1 sequence (P08581 with tags, fused parts or gaps): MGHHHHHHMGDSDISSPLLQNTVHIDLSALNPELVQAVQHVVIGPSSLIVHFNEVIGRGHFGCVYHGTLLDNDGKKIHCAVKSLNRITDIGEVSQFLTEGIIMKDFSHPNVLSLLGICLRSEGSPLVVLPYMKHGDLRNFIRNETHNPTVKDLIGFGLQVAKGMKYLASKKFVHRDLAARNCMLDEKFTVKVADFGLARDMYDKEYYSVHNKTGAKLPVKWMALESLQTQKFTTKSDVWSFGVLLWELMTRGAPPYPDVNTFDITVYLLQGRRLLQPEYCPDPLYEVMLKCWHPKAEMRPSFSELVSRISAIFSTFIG
T12 sequence (P45984 whole entry): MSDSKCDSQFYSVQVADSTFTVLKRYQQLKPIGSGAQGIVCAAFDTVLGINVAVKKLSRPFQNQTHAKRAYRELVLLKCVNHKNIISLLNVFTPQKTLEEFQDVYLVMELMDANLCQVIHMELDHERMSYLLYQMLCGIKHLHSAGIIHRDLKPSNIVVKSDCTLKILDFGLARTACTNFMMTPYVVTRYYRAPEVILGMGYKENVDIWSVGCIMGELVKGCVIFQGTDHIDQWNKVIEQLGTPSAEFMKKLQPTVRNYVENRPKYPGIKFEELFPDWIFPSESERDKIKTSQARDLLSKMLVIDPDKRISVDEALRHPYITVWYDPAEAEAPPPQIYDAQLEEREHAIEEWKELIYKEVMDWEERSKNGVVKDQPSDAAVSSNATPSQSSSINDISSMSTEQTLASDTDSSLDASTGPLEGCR
T8 sequence (P53779 whole entry): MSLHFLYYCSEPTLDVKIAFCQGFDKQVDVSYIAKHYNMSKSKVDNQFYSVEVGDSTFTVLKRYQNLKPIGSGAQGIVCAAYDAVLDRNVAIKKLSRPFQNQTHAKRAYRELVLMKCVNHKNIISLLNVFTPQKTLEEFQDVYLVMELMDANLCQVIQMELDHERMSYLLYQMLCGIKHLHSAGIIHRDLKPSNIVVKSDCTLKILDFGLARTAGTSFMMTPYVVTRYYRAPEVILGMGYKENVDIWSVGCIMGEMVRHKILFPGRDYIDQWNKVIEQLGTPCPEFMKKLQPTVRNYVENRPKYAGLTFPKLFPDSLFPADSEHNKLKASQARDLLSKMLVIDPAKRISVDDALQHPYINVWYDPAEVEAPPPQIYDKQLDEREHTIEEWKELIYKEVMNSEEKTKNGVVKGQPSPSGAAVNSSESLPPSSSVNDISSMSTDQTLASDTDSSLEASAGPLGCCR
T10 sequence (P15056 whole entry): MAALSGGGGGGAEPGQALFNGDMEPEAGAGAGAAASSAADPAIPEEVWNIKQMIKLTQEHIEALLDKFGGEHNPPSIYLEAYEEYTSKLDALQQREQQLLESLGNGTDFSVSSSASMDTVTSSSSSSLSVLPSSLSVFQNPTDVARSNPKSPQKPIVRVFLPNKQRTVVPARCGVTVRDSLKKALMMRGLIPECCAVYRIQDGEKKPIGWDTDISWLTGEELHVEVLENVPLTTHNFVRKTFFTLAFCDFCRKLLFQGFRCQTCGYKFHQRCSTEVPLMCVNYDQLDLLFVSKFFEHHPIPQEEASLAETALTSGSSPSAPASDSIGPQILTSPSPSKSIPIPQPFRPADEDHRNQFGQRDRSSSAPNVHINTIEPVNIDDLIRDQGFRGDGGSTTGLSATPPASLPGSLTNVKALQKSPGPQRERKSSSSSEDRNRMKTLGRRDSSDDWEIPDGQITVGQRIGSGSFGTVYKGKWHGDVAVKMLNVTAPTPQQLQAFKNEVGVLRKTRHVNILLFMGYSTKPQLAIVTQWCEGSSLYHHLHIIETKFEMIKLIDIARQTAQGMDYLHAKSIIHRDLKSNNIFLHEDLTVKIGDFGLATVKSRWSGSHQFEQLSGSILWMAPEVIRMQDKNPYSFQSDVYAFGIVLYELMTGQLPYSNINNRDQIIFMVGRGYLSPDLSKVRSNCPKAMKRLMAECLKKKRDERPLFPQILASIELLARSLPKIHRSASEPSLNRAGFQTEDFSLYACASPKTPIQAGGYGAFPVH
T11 sequence (P04049 whole entry): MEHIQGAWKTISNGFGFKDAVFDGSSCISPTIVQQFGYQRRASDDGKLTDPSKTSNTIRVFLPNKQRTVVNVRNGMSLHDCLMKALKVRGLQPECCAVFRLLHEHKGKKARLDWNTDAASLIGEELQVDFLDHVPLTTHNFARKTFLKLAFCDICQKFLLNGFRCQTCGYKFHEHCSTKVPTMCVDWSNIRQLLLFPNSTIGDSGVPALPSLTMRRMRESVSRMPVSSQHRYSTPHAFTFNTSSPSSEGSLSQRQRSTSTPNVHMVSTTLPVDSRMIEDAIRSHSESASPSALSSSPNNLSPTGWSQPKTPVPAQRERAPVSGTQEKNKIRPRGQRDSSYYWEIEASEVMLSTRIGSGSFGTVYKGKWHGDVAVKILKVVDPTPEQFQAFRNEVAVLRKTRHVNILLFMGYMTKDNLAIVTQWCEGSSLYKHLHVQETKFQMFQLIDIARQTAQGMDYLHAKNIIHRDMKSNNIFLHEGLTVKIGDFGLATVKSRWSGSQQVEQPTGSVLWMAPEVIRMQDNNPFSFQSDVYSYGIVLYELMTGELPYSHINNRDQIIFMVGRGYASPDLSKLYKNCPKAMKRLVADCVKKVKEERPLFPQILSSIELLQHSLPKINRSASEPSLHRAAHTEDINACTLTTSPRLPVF
T9 sequence (P10721 with tags, fused parts or gaps): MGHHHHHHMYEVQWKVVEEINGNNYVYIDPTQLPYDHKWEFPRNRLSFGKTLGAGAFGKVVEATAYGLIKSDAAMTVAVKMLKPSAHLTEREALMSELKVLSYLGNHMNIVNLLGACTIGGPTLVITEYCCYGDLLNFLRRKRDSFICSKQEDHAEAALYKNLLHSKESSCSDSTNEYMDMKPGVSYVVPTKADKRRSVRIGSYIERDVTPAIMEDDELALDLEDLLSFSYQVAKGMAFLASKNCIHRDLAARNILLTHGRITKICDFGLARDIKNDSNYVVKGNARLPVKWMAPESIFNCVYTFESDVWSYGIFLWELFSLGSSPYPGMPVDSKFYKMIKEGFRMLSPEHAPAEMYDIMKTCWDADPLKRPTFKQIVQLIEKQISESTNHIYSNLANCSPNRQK
T16 sequence (P35968 20-1356): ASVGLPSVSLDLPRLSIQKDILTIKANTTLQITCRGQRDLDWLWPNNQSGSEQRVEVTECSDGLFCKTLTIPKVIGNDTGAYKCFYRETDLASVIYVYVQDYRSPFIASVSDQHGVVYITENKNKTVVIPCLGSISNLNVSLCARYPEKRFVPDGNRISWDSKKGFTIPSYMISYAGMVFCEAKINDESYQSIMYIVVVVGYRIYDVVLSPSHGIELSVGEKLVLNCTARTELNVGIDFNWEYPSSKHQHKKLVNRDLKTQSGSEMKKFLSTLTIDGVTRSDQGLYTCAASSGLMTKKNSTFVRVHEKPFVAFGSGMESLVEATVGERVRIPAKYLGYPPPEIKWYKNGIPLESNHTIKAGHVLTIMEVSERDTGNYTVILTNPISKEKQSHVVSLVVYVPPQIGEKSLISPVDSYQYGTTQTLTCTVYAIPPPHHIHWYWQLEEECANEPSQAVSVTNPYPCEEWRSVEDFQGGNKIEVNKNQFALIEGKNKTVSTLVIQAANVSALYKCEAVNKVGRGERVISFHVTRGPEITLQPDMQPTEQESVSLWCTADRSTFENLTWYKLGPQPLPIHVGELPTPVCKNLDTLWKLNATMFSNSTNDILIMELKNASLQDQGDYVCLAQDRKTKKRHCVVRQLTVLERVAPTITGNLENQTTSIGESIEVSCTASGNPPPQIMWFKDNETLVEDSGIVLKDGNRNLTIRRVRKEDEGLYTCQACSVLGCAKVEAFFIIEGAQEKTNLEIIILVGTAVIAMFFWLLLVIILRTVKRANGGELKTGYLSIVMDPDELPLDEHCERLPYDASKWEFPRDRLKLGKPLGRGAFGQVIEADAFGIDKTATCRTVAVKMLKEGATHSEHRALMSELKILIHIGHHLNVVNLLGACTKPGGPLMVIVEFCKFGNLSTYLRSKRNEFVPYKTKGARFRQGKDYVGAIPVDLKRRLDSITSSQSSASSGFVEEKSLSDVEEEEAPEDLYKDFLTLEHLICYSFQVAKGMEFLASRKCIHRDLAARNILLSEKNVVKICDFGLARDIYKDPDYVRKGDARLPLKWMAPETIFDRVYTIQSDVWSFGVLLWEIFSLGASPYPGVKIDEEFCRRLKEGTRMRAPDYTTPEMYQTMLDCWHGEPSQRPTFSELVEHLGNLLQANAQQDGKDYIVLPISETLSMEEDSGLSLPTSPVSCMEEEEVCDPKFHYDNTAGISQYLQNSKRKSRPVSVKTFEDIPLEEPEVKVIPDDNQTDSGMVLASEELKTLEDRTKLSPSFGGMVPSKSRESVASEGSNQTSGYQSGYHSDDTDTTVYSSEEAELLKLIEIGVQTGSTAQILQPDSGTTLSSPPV

Fc1ccc(-c2ccnc3[nH]cc(Sc4cccs4)c23)cc1 [Compound P-0419]
≤ 10 µM: Met | Stk6

COC(=O)COc1ccc(F)c(Cc2c[nH]c3ncc(-c4cccnc4)cc23)c1F [Compound P-1465, [2,4-Difluoro-3-(5-pyridin-3-yl-1H-pyrrolo[2,3-b]pyridin-3-ylmethyl)-phenoxy]-acetic acid methyl ester]
≤ 10 µM: B-Raf V600E | FGFR1 | Flt1 | Fms | Jnk1 | Jnk3 | Kit | Met

O=C(c1c(F)ccc(O)c1F)c1c[nH]c2ncc(-c3cccnc3)cc12 [Compound P-0066, (2,6-Difluoro-3-hydroxy-phenyl)-(5-pyridin-3-yl-1H-pyrrolo[2,3-b]pyridin-3-yl)-methanone]
≤ 10 µM: B-Raf | B-Raf V600E | c-Raf-1 | FGFR1 | Jnk1 | Jnk2 | Jnk3 | Met | Ret

CCCS(=O)(=O)Nc1ccc(F)c(C(=O)c2c[nH]c3ncc(Br)cc23)c1F [Compound P-0773, propane-1-sulfonic acid [3-(5-bromo-1H-pyrrolo[2,3-b]pyridine-3-carbonyl)-2,4-difluoro-phenyl]-amide]
≤ 10 µM: B-Raf | B-Raf V600E | c-Raf-1 | FGFR1 | Flt1 | Fms | Kit | Met

O=C(Nc1ccccc1)Nc1ccc(Cc2c[nH]c3ncccc23)cc1 [Compound P-0542]
≤ 10 µM: c-Raf-1 | Met | Ret

CS(=O)(=O)Nc1cccc(-c2cnc3[nH]cc(C(=O)c4c(F)ccc(OC(F)F)c4F)c3c2)c1 [Compound P-1527, N-{3-[3-(3-Difluoromethoxy-2,6-difluoro-benzoyl)-1H-pyrrolo[2,3-b]pyridin-5-yl]-phenyl}-methanesulfonamide]
≤ 10 µM: B-Raf | B-Raf V600E | FGFR1 | Flt1 | Fms | Kit | Met | Src

CS(=O)(=O)Nc1ccc(F)c(C(=O)c2c[nH]c3ncc(-c4cccc(C(N)=O)c4)cc23)c1F [Compound P-0721, 3-[3-(2,6-Difluoro-3-methanesulfonylamino-benzoyl)-1H-pyrrolo[2,3-b]pyridin-5-yl]-benzamide]
not listed: Stk6 | Jnk3 | Kdr
≤ 10 µM: all other assays above

CCOc1ccccc1-c1ccnc2[nH]ccc12 [Compound P-1114]
≤ 10 µM: Fak | Met

Oc1ncc(F)c(Cc2c[nH]c3ncc(-c4ccsc4)cc23)c1F [Compound P-0822]
≤ 10 µM: Jnk3 | Met | Ret

CS(=O)(=O)Nc1ccc(F)c(C(=O)c2c[nH]c3ncc(-c4ccccc4)cc23)c1F [Compound P-0184, N-[2,4-Difluoro-3-(5-phenyl-1H-pyrrolo[2,3-b]pyridine-3-carbonyl)-phenyl]-methanesulfonamide]
not listed: Stk6 | Src | Fak
≤ 10 µM: all other assays above

CC(=O)c1cccc(Nc2cnc3[nH]ccc3c2)c1 [Compound P-1008]
≤ 10 µM: B-Raf V600E | FGFR1 | Flt1 | Fms | Jnk1 | Jnk3 | Kit | Met

CC(C)(C)c1ccc(Nc2cnc3[nH]ccc3c2)cc1 [Compound P-1023]
≤ 10 µM: Kdr | Met

O=C(c1cccc(Cl)c1F)c1c[nH]c2ncc(-c3cccnc3)cc12 [Compound P-0165, (3-Chloro-2-fluoro-phenyl)-(5-pyridin-3-yl-1H-pyrrolo[2,3-b]pyridin-3-yl)-methanone]
≤ 10 µM: B-Raf | B-Raf V600E | c-Raf-1 | FGFR1 | Jnk3 | Kdr | Met | Ret
